Data published in publication PMC10999986, “Substrate specificity of a ketosynthase domain involved in bacillaene biosynthesis” (Beilstein Journal of Organic Chemistry, 2024).

Experiments:
BaeJ-KS2 [1] = biological target: T1, BaeJ-KS2 (Bacillus amyloliquefaciens, UniProt Q1RS73); assay: […] NMR of protein after incubation and ultrafiltration buffer exchange; assay type: binding; settings: 25 °C, 30 min; labelled compound; active-site Cys replaced
T1 construct: excised second ketosynthase domain (KS2, module 4) of BaeJ, His-tagged, heterologously expressed, Ni-NTA purified
T1 sequence (Q1RS73 entry or part of it): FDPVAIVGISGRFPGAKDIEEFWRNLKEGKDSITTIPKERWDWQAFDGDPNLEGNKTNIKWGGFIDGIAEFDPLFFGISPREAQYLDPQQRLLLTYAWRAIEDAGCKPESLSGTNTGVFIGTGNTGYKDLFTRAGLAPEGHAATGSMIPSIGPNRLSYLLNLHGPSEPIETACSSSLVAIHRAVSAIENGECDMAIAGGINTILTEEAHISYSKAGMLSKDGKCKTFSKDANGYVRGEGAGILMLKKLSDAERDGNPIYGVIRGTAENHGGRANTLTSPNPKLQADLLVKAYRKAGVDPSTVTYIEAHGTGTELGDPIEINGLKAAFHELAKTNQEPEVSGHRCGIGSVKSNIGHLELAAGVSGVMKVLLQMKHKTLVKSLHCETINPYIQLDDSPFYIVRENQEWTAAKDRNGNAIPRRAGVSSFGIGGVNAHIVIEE

BaeJ-KS2 [2] = biological target: T1, BaeJ-KS2; assay: […] NMR of protein after incubation and ultrafiltration buffer exchange; proteinase K digest; settings: 25 °C, 30 min; labelled compound; covalent binding to active-site Cys proposed

Row | Structure (SMILES) | thioester carbonyl 13C NMR signal (BaeJ-KS2 [1]) | 13C NMR of protein after incubation and ultrafiltration buffer exchange; protein (BaeJ-KS2 [2])
1 | CC(=O)NCCSC(=O)CCCNC(=O)[C@@H](O)CC(C)C [(S)-11] | No signal corresponding to a thioester carbonyl group was detected in the protein preparations | for both samples obtained from the incubations with (S)-11 and (R)-11 signals were detected
2 | CC(=O)NCCSC(=O)CCCNC(=O)[C@H](O)CC(C)C [(R)-11] | (R)-11 is not bound to BaeJ-KS2-C222A after incubation and buffer exchange | This observation supports binding of both substrate surrogates to BaeJ-KS2
